Source: patent US8785655B2, “Ionic liquid solvents” (Dublin City University, priority 2009, dated 2014)

Experiments:
[1] = system: Candida lusitaniae 2446/l; assay: In vitro antifungal activity, MIC by microdilution (NCCLS M27-A); conditions: CL
[2] = system: Klebsiella pneumoniae D 11750/08; assay: Screen against bacteria, MIC/IC80; type: cell-based; conditions: KP
[3] = system: Staphylococcus aureus H 5996/08 Methiciline-resistant; assay: Screen against bacteria, MIC/IC80; type: cell-based; conditions: MRSA
[4] = system: Pseudomonas aeruginosa CCM 1961; assay: Screen against bacteria, MIC/IC80; type: cell-based; conditions: PA
[5] = system: Candida parapsilosis ATCC 22019; assay: In vitro antifungal activity, MIC by microdilution (NCCLS M27-A); conditions: CP
[6] = system: Candida krusei E28; assay: as above
Description: All the isolates were maintained on Sabouraud dextrose agar prior to being tested.
(§1) Minimum inhibitory concentrations (MICs) were determined by the microdilution format of the NCCLS M27-A guidelines. […] RPMI 1640 (Sevapharma, Prague) medium supplemented with L-glutamine and buffered with 0.165 M morpholinepropanesulfonic acid to pH 7.0 was used as the test medium. The wells of the microdilution tray contained 100 μl of the RPMI 1640 medium with 2-fold serial dilutions of the compounds (1000 to 0.24 μmol/l for the new compounds) and 100 μl of inoculum suspension. Fungal inoculum in RPMI 1640 was prepared to give a final concentration of 5×103±0.2 cfu·ml-1. The trays were incubated at 35° C. and MICs were read visually for filamentous fungi and photometrically for yeasts as an optical density (OD) at 540 nm after 24 h and 48 h. The MICs were defined as 80% inhibition of the growth of control. MICs were determined twice and in duplicate. The deviations from the usually obtained were no higher than the nearest concentration value up and down the dilution scale.

[7] = system: Enterococcus sp. J 14365/08; assay: Screen against bacteria, MIC/IC80; type: cell-based; conditions: EF
[8] = system: Candida krusei ATCC 6258; assay: In vitro antifungal activity, MIC by microdilution (NCCLS M27-A)
[9] = system: Staphylococcus aureus CCM 4516/08; assay: Screen against bacteria, MIC/IC80; type: cell-based; conditions: SA
[10] = system: Staphylococcus epidermidis H 6966/08; assay: Screen against bacteria, MIC/IC80; type: cell-based; conditions: SE
[11] = system: Escherichia coli CCM4517; assay: Screen against bacteria, MIC/IC80; type: cell-based; conditions: EC
[12] = system: Candida glabrata 20/l; assay: In vitro antifungal activity, MIC by microdilution (NCCLS M27-A); conditions: CG
[13] = system: Absidia corymbifera 272; assay: as above; conditions: AC
Description: (§2) In vitro antifungal activities of the compounds were evaluated on the collection of fungal strains deposited at the Department of Biological and Medical Sciences, Faculty of Pharmacy, Charles University, Czech Republic. All the isolates were maintained on Sabouraud dextrose agar prior to being tested.
as §1

[14] = system: Candida albicans ATCC 90028; assay: as above
Description: as §2, §1

[15] = system: Trichophyton mentagrophytes 445; assay: as above; conditions: TM
Description: as §2, §1

[16] = system: Candida tropicalis 156; assay: as above; conditions: CT
[17] = system: Candida albicans ATCC 44859; assay: as above
Description: as §2, §1

[18] = system: Klebsiella pneumoniae J 14368/08 ESBL-positive; assay: Screen against bacteria, MIC/IC80; type: cell-based; conditions: KP-E
[19] = system: Aspergillus fumigatus 231; assay: In vitro antifungal activity, MIC by microdilution (NCCLS M27-A); conditions: AF
Description: as §2, §1

Measured: MIC/IC80

COC(=O)[C@H](OC(=O)C[n+]1ccn(C)c1)c1ccccc1 [KG90, R-3-methyl-1-[1-(methoxycarbonyl)-1-phenylmethoxycarbonylmethyl]imidazolium bromide]
>1000 µM: [1]; 24 h | [1]; 48 h | [2]; 24 h | [2]; 48 h | [3]; 24 h | [3]; 48 h | [4]; 24 h | [4]; 48 h | [5]; 24 h | [5]; 48 h | [6]; CK2, 24 h | [6]; CK2, 48 h | [7]; 24 h | [7]; 48 h | [8]; CK1, 24 h | [8]; CK1, 48 h | [9]; 24 h | [9]; 48 h | [10]; 24 h | [10]; 48 h | [11]; 24 h | [11]; 48 h | [12]; 24 h | [12]; 48 h | [13]; 24 h | [13]; 48 h | [14]; CA2, 24 h | [14]; CA2, 48 h | [15]; 72 h | [15]; 120 h | [16]; 24 h | [16]; 48 h | [17]; CA1, 24 h | [17]; CA1, 48 h | [18]; 24 h | [18]; 48 h | [19]; 24 h | [19]; 48 h

COC(=O)[C@@H](OC(=O)C[n+]1ccn(C)c1)c1ccccc1 [KG91, S-3-methyl-1-[1-(methoxycarbonyl)-1-phenylmethoxycarbonylmethyl]imidazolium bromide]
>1000 µM: [1]; 24 h | [1]; 48 h | [2]; 24 h | [2]; 48 h | [3]; 24 h | [3]; 48 h | [4]; 24 h | [4]; 48 h | [5]; 24 h | [5]; 48 h | [6]; CK2, 24 h | [6]; CK2, 48 h | [7]; 24 h | [7]; 48 h | [8]; CK1, 24 h | [8]; CK1, 48 h | [9]; 24 h | [9]; 48 h | [10]; 24 h | [10]; 48 h | [11]; 24 h | [11]; 48 h | [12]; 24 h | [12]; 48 h | [13]; 24 h | [13]; 48 h | [14]; CA2, 24 h | [14]; CA2, 48 h | [15]; 72 h | [15]; 120 h | [16]; 24 h | [16]; 48 h | [17]; CA1, 24 h | [17]; CA1, 48 h | [18]; 24 h | [18]; 48 h | [19]; 24 h | [19]; 48 h

CCCCCOC(=O)[C@@H](C)OC(=O)C[n+]1ccn(C)c1 [KG159, R-3-methyl-1-[1-(pentoxycarbonyl)-1-methylmethoxycarbonylmethyl]imidazolium bromide]
>1000 µM: [1]; 24 h | [1]; 48 h | [2]; 24 h | [2]; 48 h | [3]; 24 h | [3]; 48 h | [4]; 24 h | [4]; 48 h | [5]; 24 h | [5]; 48 h | [6]; CK2, 24 h | [6]; CK2, 48 h | [7]; 24 h | [7]; 48 h | [8]; CK1, 24 h | [8]; CK1, 48 h | [9]; 24 h | [9]; 48 h | [10]; 24 h | [10]; 48 h | [11]; 24 h | [11]; 48 h | [12]; 24 h | [12]; 48 h | [13]; 24 h | [13]; 48 h | [14]; CA2, 24 h | [14]; CA2, 48 h | [15]; 72 h | [15]; 120 h | [16]; 24 h | [16]; 48 h | [17]; CA1, 24 h | [17]; CA1, 48 h | [18]; 24 h | [18]; 48 h | [19]; 24 h | [19]; 48 h
